According to a compilation of properties of binary mixtures (doi:10.1016/j.jct.2022.106923):

Experiment: xn = mol fraction of the nth substance listed
Details: 101.3 kPa

CO + CC[n+]1ccn(C)c1C.F[B-](F)(F)F
x2 = 0
Details	viscosity [mPa·s]
293.15 K	0.57
298.15 K	0.532
303.15 K	0.498
313.15 K	0.439
318.15 K	0.414
323.15 K	0.39
328.15 K	0.37
333.15 K	0.351

CC[n+]1ccn(C)c1C.F[B-](F)(F)F + CO
viscosity [mPa·s]
Details	293.15 K	298.15 K	303.15 K	308.15 K	313.15 K	318.15 K	323.15 K	328.15 K	333.15 K
x1 = 0.0165	0.863	0.803	0.75	0.701	0.658	0.619	0.583	0.55	0.522
x1 = 0.0364	0.999	0.925	–	0.801	0.752	0.706	–	0.626	0.59
x1 = 0.0608	1.27	1.177	1.096	–	0.953	0.893	0.839	0.79	0.749
x1 = 0.0915	1.45	–	1.26	–	1.086	1.012	–	–	0.816
x1 = 0.1313	–	1.77	–	–	1.4	1.3	–	–	–
x1 = 0.1848	2.75	2.5	2.28	2.09	–	1.77	1.63	1.52	–
x1 = 0.2607	4.43	–	3.6	3.28	2.99	2.74	2.54	2.34	2.17
x1 = 0.3768	9.29	8.18	7.17	6.85	6.15	–	5.01	–	4.13
